PubChem BioAssay (NCI)
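Compound exposure: 48 hours, 5 concentrations, 96-well plates. Here, GI50 denotes the concentration required for 50% inhibition of growth. TGI denotes the concentration required for complete inhibition of growth.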

How the values were obtained:
Assay in all cases: growth of human tumour cells (NCI), 48 h
[1] = tested on: SK-MEL-5 melanoma
[2] = tested on: HCT-116 colon
[3] = tested on: U251 CNS
[4] = tested on: UO-31 renal
[5] = tested on: SN12C renal
[6] = tested on: HOP-62 NSCLC
[7] = tested on: SF-539 CNS
[8] = tested on: NCI-H23 lung
[9] = tested on: HL-60(TB) leukemia
[10] = tested on: MDA-MB-435

Row | Structure (SMILES) | TGI [1] [µM] | TGI [2] [µM] | TGI [3] [µM] | TGI [4] [µM] | TGI [5] [µM] | TGI [6] [µM] | TGI [7] [µM] | TGI [8] [µM] | TGI [9] [µM] | GI50 [1] [µM] | GI50 [2] [µM] | GI50 [3] [µM] | GI50 [4] [µM] | GI50 [5] [µM] | GI50 [6] [µM] | GI50 [8] [µM] | GI50 [9] [µM] | GI50 [10] [µM] | TGI [10] [µM] | GI50 [7] [µM]
1 | O=C(O)CCSC(=S)Nc1cccc(F)c1 | 43.5 | > 100 | > 100 | > 100 | > 100 | > 100 | > 100 | > 100 |  |  |  |  |  |  |  |  |  |  |  | 
2 | O=C1[C@H](Cl)[C@H]2c3cc4ccccc4nc3Oc3ccccc3N12 | > 100 | 58 | > 100 | 72.6 | > 100 | > 100 |  | > 100 | > 100 |  |  |  |  |  |  |  |  |  |  | 
3 | COc1ccc2c(c1)N(CCO)C1=C(C(=O)OC1)C2c1ccccc1 (configuration not stated) | 8.83 | 15.6 | > 50 | > 50 | > 50 | > 50 |  | > 50 | 2.84 | 1.58 | 1.97 | 1.81 | 2.37 | 3.7 | 2.18 | 1.94 | 1.15 |  |  | 
4 | Cc1ccc(NC(=O)CC/C(CC(=O)C(C)(C)C)=N\Nc2ccc([N+](=O)[O-])cc2[N+](=O)[O-])cc1C |  | > 100 | > 100 | > 100 |  | 61.9 | > 100 | > 100 |  |  |  |  |  |  |  |  |  |  |  | 
5 | COc1cc2c(cc1OC)c1c(OC)c(OC)cc3c1c1c2sc(=S)n1CC3 | > 100 | > 100 | > 100 | > 100 | > 100 |  | > 100 | > 100 | 81.8 |  |  |  |  |  |  |  |  |  |  | 
6 | CC(=O)O/N=C(Cl)/C(Cl)=N/OC(C)=O |  | > 100 | > 100 | > 100 | > 100 | > 100 | > 100 | > 100 | > 100 |  |  |  |  |  |  |  |  |  |  | 
7 | O=C(O)CCSC(=O)Nc1ccccc1Cl | > 100 | > 100 | > 100 | > 100 | > 100 | > 100 | > 100 | > 100 |  |  |  |  |  |  |  |  |  |  |  | 
8 | CCOC(=O)NC(=O)c1cn(CCN2CCNCC2)c(=O)[nH]c1=O | > 100 | > 100 | > 100 |  | > 100 | > 100 | > 100 | > 100 | > 100 |  |  |  |  |  |  |  |  |  |  | 
9 | Nc1ccc2c(c1)Oc1c(F)c(F)cc3c(=O)c(C(=O)O)cn-2c13 | 47.9 | > 100 | > 100 | 93.7 | > 100 | > 100 | > 100 | > 100 | > 100 |  |  |  |  |  |  |  |  |  |  | 
10 | COc1ccc(CNc2cnc3cc(N)cc(N)c3n2)cc1 | 35.2 | 40.8 | 32.5 | 33.7 | 32.9 | > 100 | 39.4 | 29.1 |  | 18.9 | 19.4 | 17.2 | 16.3 | 18.4 | 35.9 | 15.1 |  | 21.7 | 39 | 21.7
